Test results: patent publication US6495522B1, “Substituted alpha-hydroxy acid caspase inhibitors and the use thereof” (Cytovia, Inc., priority 1999, dated 2002)
pEC50, pIC50: −log10 of the molar value.

How the values were obtained:
[1] = target: T1, rcaspase 3 (Homo sapiens, UniProt P42574); experiment: Fluorometric caspase-3 enzyme assay; assay type: biochemical; conditions: 2 ng rcaspase 3, 10 μM Ac-DEVD-AMC, 37° C., 30 minutes; read-out: IC50 as an inhibitor of caspase-3
T1 construct: purchased PharMingen (a Becton division company, San Diego, Calif.)
T1 sequence (P42574 29-175 limits assumed): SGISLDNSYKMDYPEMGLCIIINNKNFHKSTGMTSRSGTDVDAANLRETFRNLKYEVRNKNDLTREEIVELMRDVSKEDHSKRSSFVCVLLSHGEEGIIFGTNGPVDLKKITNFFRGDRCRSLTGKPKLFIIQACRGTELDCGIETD
T1 sequence (P42574 176-277 limits assumed): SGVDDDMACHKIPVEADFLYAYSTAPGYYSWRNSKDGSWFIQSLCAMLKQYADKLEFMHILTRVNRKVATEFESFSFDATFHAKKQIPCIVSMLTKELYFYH
Method: The activity of S-2-methyl-1-(carbonyl-Asp-CH2F)propyl N-phenylcarbamate as an inhibitor of caspase-3 was measured in a fluorometric enzyme assay. Enzyme activity was measured using synthetic peptide substrates attached to a fluorogenic leaving group. Cleavage of the synthetic substrate by the enzyme results in a fluorescent signal which is read in a spectrofluorometer or in a fluorometric microtiter plate reader.
12 concentrations of the test compound ranging from 30 pM to 10 μM were tested in the enzyme assay. The enzyme reaction was conducted in the presence of 2 ng rcaspase 3 (purchased from PharMingen, a Becton division company, San Diego, Calif.), various concentrations of test compound, 10 μM caspase 3 substrate Ac-DEVD-AMC (SEQ ID NO:1, purchased from Quality Controlled Biochemicals, Inc. Hopkinton, Mass.) and caspase buffer (20 mM PIPES, 100 mM NaCl, 10 mM DTT, 1 mM EDTA, 0.1% CHAPS and 10% sucrose, pH 7.2) in a total volume of 100 μL. The enzyme reaction was carried out in a 96-well plate and incubated at 37° C. for 30 minutes. The plate was then read with a fluorescence plate reader (EG&G WALLAG 1420-002) using excitation filter at 355 nm/emission filter at 460 nm.

[2] = system: HeLa cells; experiment: Cell protection: HeLa cell death induced by TNF-α; assay type: cell-based; conditions: TNF-α (25 ng/ml) and cycloheximide (30 μg/ml), 24 hours, calcein AM, read-out: EC50 for cytoprotection
Method: Cell protection activity was determined by examining the ability of S-2-methyl-1-(carbonyl-Asp-CH2F)propyl N-phenylcarbamate to block HeLa cell death induced by TNF-α. In this assay, 25,000 HeLa cells are seeded in 96-well plates 24 hours prior to testing. On the assay day, the cells are pre-incubated for 30 minutes with the test compound at eight different concentrations and the cells are then challenged with TNF-α (25 ng/ml) and cycloheximide (30 μg/ml) and incubated further for 24 hours. The dead cells are then removed by two PBS washes and 100 μL of a cell-mass indicator solution (calcein AM, final concentration 8 μM) is added. After a 20 minute incubation, the fluorescent signal is measured at 485/510 nm and the data are expressed as percent control, using control cultures treated only with cycloheximide.

CC(C)[C@H](OC(=O)Nc1ccccc1)C(=O)N[C@@H](CC(=O)O)C(=O)CF [Example 3, S-2-Methyl-1-(carbonyl-Asp-CH2F)propyl N-Phenylcarbamate]
pIC50 [1]: 7.77
pEC50 [2]: 6.82
